Laboratory results taken from patent US11090246B2, “Powder hair dye composition” (KAO CORPORATION, priority 2017, dated 2021).

Assay: pKa and color of the azo dyes on dissociation of a proton
Format: physicochemical
Description: Therefore, because the components (B) and (C) coexist with the component (A) in the powder hair dye composition of the present invention, a proton of the component (A) is dissociated and a color of the composition becomes close to one after hair dyeing.

Row | color assumed by dissociation of a proton | Structure (SMILES)
1 | blue color | NS(=O)(=O)c1ccc2nsc(/N=N/c3ccc(O)c(Cl)c3)c2c1 [(A-2), HC Red 18]
2 | yellow color | Cn1nccc1/N=N/c1ccc(O)c(Cl)c1 [(A-3), HC Yellow 16]
3 | red color | CSc1nsc(/N=N/c2ccc(O)c(Cl)c2)n1 [(A-1), HC Blue 18]
